Test results taken from patent US9499553B2 (CHUGAI SEIYAKU KABUSHIKI KAISHA, priority 2013, dated 2016).
Where a name gives a salt, the structure may show the parent alone.

The molecules below were run on rat small-intestinal brush border membrane vesicles (assay: Inhibitory effect on 33PO4 uptake into rat small-intestinal brush border membrane vesicles (rapid filtration method)). Details: 1 μM test compound; 33PO4 uptake into rat small-intestinal BBMVs, reacted for 60 seconds.
Format: biochemical
Description: Test Example 1: Inhibitory Effect on ^33PO4 Uptake into Rat Small-Intestinal Brush Border Membrane Vesicles Brush border membrane vesicles (BBMVs) were prepared using the upper region of the small intestine of each Wistar female rat (4-5 weeks old). The preparation of BBMVs was performed according to the method of Murer et al. (Murer […]. Sodium/proton antiport in brush-border-membrane vesicles isolated from rat small intestine and kidney. 1976. J Am Soc Nephrol. 1998 January; 9 (1): 143-50). The ^33PO4 transport activity of the small-intestinal BBMVs was determined by the rapid filtration method. […] Then, ice-cold buffer C (110 mM NaCl, 1 mM KH2PO4, and 10 mM HEPES (pH 7.5)) was added to each reaction mixture, which was immediately suction-filtered through a Millipore filter. The filter was washed with buffer C, and each sample was then dissolved in a liquid scintillator. The amount of ^33PO4 uptake into BBMVs was measured using a liquid scintillation counter.
With `C[C@]12CCCN1N(Cc1cccc(F)c1Br)C(=O)C(C(=O)Nc1ccc(Br)c(C(F)(F)F)c1)=C2O` [Example 42] the “Rate of uptake inhibition (%) (1 μM)” value was 67%.
In the case of `C[C@]12CCCN1N(Cc1cccc(F)c1F)C(=O)C(C(=O)Nc1ccc(C(F)(F)F)cc1-c1ccc(C#N)nc1)=C2O` [Example 94], the “Rate of uptake inhibition (%) (1 μM)” value is reported as 73%.
In the case of `COC(=O)c1cc(-c2cc(C(F)(F)F)ccc2NC(=O)C2=C(O)[C@@]3(C)CCCN3N(Cc3cccc(F)c3F)C2=O)nc(Cl)n1` [Example 98], the “Rate of uptake inhibition (%) (1 μM)” value is reported as 53%.
For `COc1cccc(-c2cc(C(F)(F)F)ccc2NC(=O)C2=C(O)[C@@]3(C)CCCN3N(Cc3cccc(F)c3F)C2=O)c1OC` [Example 44], the “Rate of uptake inhibition (%) (1 μM)” value was 94%.
With `C[C@]12CCCN1N(Cc1cccc(F)c1F)C(=O)C(C(=O)Nc1ccc(Br)c(Cl)c1)=C2O` [Example 31] the “Rate of uptake inhibition (%) (1 μM)” value was 76%.
In the case of `COc1ccc(CN2C(=O)C(C(=O)Nc3cc(F)c(Br)c(F)c3)=C(O)[C@@]3(C)CCCN23)c(OC)c1` [Example 58], the “Rate of uptake inhibition (%) (1 μM)” value is reported as 46%.

Each molecule was assayed against T1, human NaPi-IIb (Homo sapiens, UniProt O95436) (assay: Inhibitory effect on 33PO4 uptake into human NaPi-IIb-expressing CHO cells). Details: read-out: IC50.
T1 construct: expressed in transfected cells
T1 sequence (O95436 1-690): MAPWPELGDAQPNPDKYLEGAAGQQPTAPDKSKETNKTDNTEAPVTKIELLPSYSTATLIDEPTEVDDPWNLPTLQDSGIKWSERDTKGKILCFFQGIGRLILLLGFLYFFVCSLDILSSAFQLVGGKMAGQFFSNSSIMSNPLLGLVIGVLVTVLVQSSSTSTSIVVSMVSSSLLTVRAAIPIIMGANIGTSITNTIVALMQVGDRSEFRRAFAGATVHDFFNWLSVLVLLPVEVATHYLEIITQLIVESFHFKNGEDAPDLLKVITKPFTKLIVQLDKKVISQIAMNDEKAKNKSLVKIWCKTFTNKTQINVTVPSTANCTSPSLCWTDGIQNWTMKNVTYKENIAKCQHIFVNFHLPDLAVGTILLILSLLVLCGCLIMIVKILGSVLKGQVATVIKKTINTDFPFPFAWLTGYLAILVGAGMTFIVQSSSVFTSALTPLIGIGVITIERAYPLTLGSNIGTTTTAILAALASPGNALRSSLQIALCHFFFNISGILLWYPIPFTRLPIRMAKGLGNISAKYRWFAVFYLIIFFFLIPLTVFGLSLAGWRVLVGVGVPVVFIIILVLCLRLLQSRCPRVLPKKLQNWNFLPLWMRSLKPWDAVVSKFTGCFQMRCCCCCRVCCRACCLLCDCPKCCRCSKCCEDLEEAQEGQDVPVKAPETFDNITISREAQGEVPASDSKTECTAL
Format: cell-based
Summary of the method: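 Uptake of ³³PO4 was measured by scintillation counting after ice-cold buffer A washes. Cells were CHO stably expressing human NaPi-IIb, seeded overnight, and exposed to ³³PO4 in buffer A at room temperature.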
With `C[C@]12CCCN1N(Cc1cccc(F)c1Br)C(=O)C(C(=O)Nc1ccc(Br)c(C(F)(F)F)c1)=C2O` [Example 42] the IC50 was 5 µM.
`C[C@]12CCCN1N(Cc1cccc(F)c1F)C(=O)C(C(=O)Nc1ccc(C(F)(F)F)cc1-c1ccc(C#N)nc1)=C2O` [Example 94] was tested, and the IC50 was 8.8 µM.
Work on `COC(=O)c1cc(-c2cc(C(F)(F)F)ccc2NC(=O)C2=C(O)[C@@]3(C)CCCN3N(Cc3cccc(F)c3F)C2=O)nc(Cl)n1` [Example 98] yielded an IC50 of 10.6 µM.
Work on `CSc1cc(-c2cc(C(F)(F)F)ccc2NC(=O)C2=C(O)[C@@]3(C)CCCN3N(Cc3cccc(F)c3F)C2=O)cnc1C#N` [Example 113, (4aR)—N-[2-(6-Cyano-5-methylsulfanylpyridin-3-yl)-4-(trifluoromethyl)phenyl]-1-[(2,3-difluorophenyl)methyl]-4-hydroxy-4a-methyl-2-oxo-6,7-dihydro-5H-pyrrolo[1,2-b]pyridazine-3-carboxamide] yielded an IC50 of 15.5 µM.
`C[C@]12CCCN1N(Cc1cc(F)c(F)c(F)c1)C(=O)C(C(=O)Nc1cc(F)c(Br)c(F)c1)=C2O` [Example 197] was tested, and the IC50 was 7 µM.
`C[C@]12CCCN1N(Cc1cccc(F)c1F)C(=O)C(C(=O)Nc1ccc(Br)cc1-c1cc(C(F)(F)F)ncn1)=C2O` [Example 64] showed an IC50 of 6.5 µM.
`CN1N(Cc2cccc(F)c2F)C(=O)C(C(=O)Nc2ccc(Cl)cc2-c2ccc(C(F)(F)F)nc2)=C(O)C1(C)C` [Example 309] gave an IC50 of 6.5 µM.
`COc1cccc(-c2cc(C(F)(F)F)ccc2NC(=O)C2=C(O)[C@@]3(C)CCCN3N(Cc3ccc(C#CCOCCCO)c(F)c3F)C2=O)c1OC` [Example 127] gave an IC50 of 17.6 µM.
Work on `C[C@]12CCCN1N(Cc1c(F)cc(C#CC3(O)CCCC3)cc1F)C(=O)C(C(=O)Nc1ccc(C(F)(F)F)cc1-c1ccc(C(F)(F)F)nc1)=C2O` [Example 130] yielded an IC50 of 8.9 µM.
With `C[C@]12CCCN1N(Cc1cccc(F)c1F)C(=O)C(C(=O)Nc1ccc(Cl)cc1F)=C2O` [Example 76] the IC50 was 6.6 µM.
For `C[C@]12CCCN1N(Cc1c(Cl)cc(OCCN3CCOCC3)cc1Cl)C(=O)C(C(=O)Nc1cnc(C(F)(F)F)nc1-c1ccc(C(F)(F)F)nc1)=C2O` [Example 146, (4aR)-1-[[2,6-Dichloro-4-(2-morpholin-4-ylethoxy)phenyl]methyl]-4-hydroxy-4a-methyl-2-oxo-N-[2-(trifluoromethyl)-4-[6-(trifluoromethyl)pyridin-3-yl]pyrimidin-5-yl]-6,7-dihydro-5H-pyrrolo[1,2-b]pyridazine-3-carboxamide hydrochloride], the IC50 was 10.2 µM.
For `CSc1ncc(-c2cc(C(F)(F)F)ccc2NC(=O)C2=C(O)[C@@]3(C)CCCN3N(Cc3ccc(C#CCCCCC(=O)O)c(F)c3F)C2=O)cn1` [Example 118, 7-[4-[[(4aR)-4-Hydroxy-4a-methyl-3-[[2-(2-methylsulfanylpyrimidin-5-yl)-4-(trifluoromethyl)phenyl]carbamoyl]-2-oxo-6,7-dihydro-5H-pyrrolo[1,2-b]pyridazin-1-yl]methyl]-2,3-difluorophenyl]hept-6-ynoate], the IC50 was 9.1 µM.
For `CC(C)[C@@H]1C(O)=C(C(=O)Nc2ccc(C(F)(F)F)cc2-c2cc(C(F)(F)F)ncn2)C(=O)N(Cc2cccc(F)c2F)N1C` [Example 249], the IC50 was 9.8 µM.
With `C[C@]12CCCN1N(Cc1cccc(F)c1F)C(=O)C(C(=O)Nc1ccc(Br)cc1-c1ccc(Cl)nc1)=C2O` [Example 122, (4aR)—N-[4-Bromo-2-(6-chloropyridin-3-yl)phenyl]-1-[(2,3-difluorophenyl)methyl]-4-hydroxy-4a-methyl-2-oxo-6,7-dihydro-5H-pyrrolo[1,2-b]pyridazine-3-carboxamide] the IC50 was 8.6 µM.
`C[C@]12CCCN1N(Cc1cccc(F)c1F)C(=O)C(C(=O)Nc1ccc(Cl)cc1-c1ccc(C(F)(F)F)nc1)=C2O` [Example 86] showed an IC50 of 5.3 µM.
`COc1cccc(-c2cc(C(F)(F)F)ccc2NC(=O)C2=C(O)[C@@]3(C)CCCN3N(Cc3ccc(C#CCOCCCCO)c(F)c3F)C2=O)c1OC` [Example 123, (4aR)-1-[[2,3-Difluoro-4-[3-(4-hydroxybutoxy)prop-1-ynil]phenyl]methyl]-N-[2-(2,3-dimethoxyphenyl)-4-(trifluoromethyl)phenyl]-4-hydroxy-4a-methyl-2-oxo-6,7-dihydro-5H-pyrrolo[1,2-b]pyridazine-3-carboxamide] gave an IC50 of 14.8 µM.
For `CCN1[C@@H](C(C)(C)C)C(O)=C(C(=O)Nc2cc(F)c(Br)c(F)c2)C(=O)N1Cc1cccc(F)c1F` [Example 246], the IC50 was 8.6 µM.
`C[C@]12CCCN1N(Cc1ccc(F)cc1)C(=O)C(C(=O)Nc1ccc(C(F)(F)F)cc1-c1cc(C(F)(F)F)ncn1)=C2O` [Example 208] showed an IC50 of 6.6 µM.
`C[C@]12CCCN1N(Cc1cccc(OC(F)F)c1)C(=O)C(C(=O)Nc1ccc(C(F)(F)F)cc1-c1cc(C(F)(F)F)ncn1)=C2O` [Example 177] gave an IC50 of 11.1 µM.
With `C[C@]12CCCN1N(Cc1cccc(F)c1F)C(=O)C(C(=O)Nc1cc(F)c(Br)c(F)c1)=C2O` [Example 29] the IC50 was 2 µM.
Work on `CN1N(Cc2ccc(OCCN3CCOCC3)c(F)c2F)C(=O)C(C(=O)Nc2ccc(C(F)(F)F)cc2-c2cc(C(F)(F)F)ncn2)=C(O)C12CCC2` [Example 317, 6-[[2,3-Difluoro-4-(2-morpholin-4-ylethoxy)phenyl]methyl]-9-hydroxy-5-methyl-7-oxo-N-[4-(trifluoromethyl)-2-[6-(trifluoromethyl)pyrimidin-4-yl]phenyl]-5,6-diazaspiro[3.5] non-8-ene-8-carboxamide] yielded an IC50 of 9.6 µM.
`COc1cccc(-c2cc(C(F)(F)F)ccc2NC(=O)C2=C(O)[C@@]3(C)CCCN3N(Cc3ccc(C#CCOCCOCCOCCO)c(F)c3F)C2=O)c1OC` [Example 136] gave an IC50 of 17.6 µM.
`Cc1c(Cl)ncnc1-c1cc(C(F)(F)F)ccc1NC(=O)C1=C(O)[C@H](C(C)(C)C)N(C)N(Cc2ccc(OCCN3CCOCC3)c(F)c2F)C1=O` [Example 276] gave an IC50 of 15.8 µM.

Same assay, conditions: read-out: IC50 against 33PO4 uptake into human NaPi-IIb-expressing cells
In the case of `COCC(C)(C)N(C)CCOc1ccc(CN2C(=O)C(C(=O)Nc3ccc(C(F)(F)F)cc3-c3cc(C(F)(F)F)ncn3)=C(O)C3(CCC3)N2C)c(F)c1F` [Example 349], the IC50 is reported as 8.3 µM.
`CN1CCN(CCOc2ccc(CN3C(=O)C(C(=O)Nc4ccc(C(F)(F)F)cc4-c4cc(C(F)(F)F)ncn4)=C(O)C4(CCC4)N3C)c(F)c2F)CC1=O` [Example 359] was tested, and the IC50 was 18.4 µM.
For `CN1N(Cc2ccc(OCCCCOC[C@H](O)CO)c(F)c2F)C(=O)C(C(=O)Nc2ccc(C(F)(F)F)cc2-c2cc(C(F)(F)F)ncn2)=C(O)C12CCC2` [Example 390], the IC50 was 7.8 µM.
Work on `CN1N(Cc2ccc(OCCNC(CC(=O)O)CC(=O)O)c(F)c2F)C(=O)C(C(=O)Nc2ccc(C(F)(F)F)cc2-c2cc(C(F)(F)F)ncn2)=C(O)C12CCCC2` [Example 382, 3-[2-[2,3-Difluoro-4-[[10-hydroxy-6-methyl-8-oxo-9-[[4-(trifluoromethyl)-2-[6-(trifluoromethyl)pyrimidin-4-yl]phenyl]carbamoyl]-6,7-diazaspiro[4.5]dec-9-en-7-yl]methyl]phenoxy]ethylamino]pentanedioate] yielded an IC50 of 21 µM.
For `COCCN1CC[C@@H](Oc2ccc(CN3C(=O)C(C(=O)Nc4ccc(C(F)(F)F)cc4-c4cc(C(F)(F)F)ncn4)=C(O)C4(CCC4)N3C)c(F)c2F)C1` [Example 405, 6-[[2,3-Difluoro-4-[(3R)-1-(2-methoxyethyl)pyrrolidin-3-yl]oxyphenyl]methyl]-9-hydroxy-5-methyl-7-oxo-N-[4-(trifluoromethyl)-2-[6-(trifluoromethyl)pyrimidin-4-yl]phenyl]-5,6-diazaspiro[3.5]non-8-ene-8-carboxamide], the IC50 was 27.7 µM.
`CN1N(Cc2ccc(OCCN3CCN(CCO)CC3)c(F)c2F)C(=O)C(C(=O)Nc2ccc(C(F)(F)F)cc2-c2cc(C(F)(F)F)ncn2)=C(O)C12CCCC2` [Example 376] showed an IC50 of 21.4 µM.
